≈ marks a conversion by molar mass, not a printed value. Like-named read-outs stand apart in the source and are kept apart here.
Experiments:
Mtb strain mc^2-7000 = assay: microbe, parasite or virus in culture; type: cell-based, Mycobacterium tuberculosis; details: for MIC: 6 days incubation at 37° C., resazurin, read on the 7th day; for whole Mycobacterium tuberculosis cell inhibition: preliminary studies of commercially available herbicides
Mtb AccD6 = Mtb AccD6 (Mycobacterium tuberculosis, UniProt P9WQH5); assay: biochemical; type: biochemical; details: for IC50: 300 μM malonyl-CoA, inhibitor 10 μM to 2000 μM; for Mtb AccD6 inhibition: preliminary studies of commercially available herbicides; for inhibition at 20 µM: read-out: inhibition at 20 uM
Chain of Mtb AccD6 (P9WQH5 whole entry, looked up): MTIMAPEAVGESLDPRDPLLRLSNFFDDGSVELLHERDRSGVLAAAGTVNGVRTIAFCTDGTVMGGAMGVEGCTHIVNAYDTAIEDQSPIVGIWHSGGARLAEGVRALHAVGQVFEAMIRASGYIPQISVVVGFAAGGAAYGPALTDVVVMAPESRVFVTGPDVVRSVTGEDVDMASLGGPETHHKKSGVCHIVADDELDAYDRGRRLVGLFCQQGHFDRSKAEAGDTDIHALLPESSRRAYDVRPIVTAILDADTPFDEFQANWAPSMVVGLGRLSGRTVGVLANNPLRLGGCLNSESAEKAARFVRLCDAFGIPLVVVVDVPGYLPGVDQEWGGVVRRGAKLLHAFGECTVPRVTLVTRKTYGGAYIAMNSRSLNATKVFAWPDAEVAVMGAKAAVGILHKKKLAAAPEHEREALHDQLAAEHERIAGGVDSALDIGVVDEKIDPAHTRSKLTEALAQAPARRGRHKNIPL

[1] = Mycobacterium tuberculosis, 144 h, read-out: MIC

Compound	concentrations at which not toxic, s. cerevisiae cytotoxicity (S. cerevisiae) [µM]	MIC (Mtb strain mc^2-7000; [1]) [µM]	IC50 (Mtb AccD6; read-out: IC50) [µM]	also measured
CONC(=O)C(OC)c1ccc(Oc2nc3ccc(Cl)cc3s2)cc1 (centres unmarked) [NZ-357, 2-{4-[(6-chloro-1,3-benzothiazol-2-yl)oxy]phenyl}-N,2-dimethoxyacetamide]	≥ 100	20 (≈ 7.58 µg/mL)	3.6	–
CNC(=O)Nc1ccc(Oc2nc3ccc(Cl)cc3s2)cc1 [NZ-353, 1-{4-[(6-chloro-1,3-benzothiazol-2-yl)oxy]phenyl}-3-methylurea]	≥ 100	–	4	MIC (Mtb strain mc^2-7000): Not Active
CC(C)NC(=O)Nc1ccc(Oc2nc3ccc(Br)cc3s2)cc1 [NZ-359, 1-{4-[(6-bromo-1,3-benzothiazol-2-yl)oxy]phenyl}-3-(propan-2-yl)urea]	≥ 100	> 50	8.4	–
COC(=O)C(OC)c1ccc(Oc2nc3ccc(Cl)cc3s2)cc1 (centres unmarked) [NZ-355, methyl 2-{4-[(6-chloro-1,3-benzothiazol-2-yl)oxy]phenyl}-2-methoxyacetate]	≥ 100	4.5 (≈ 1.64 µg/mL)	20	–
CC(C(=O)NCC(O)CO)c1ccc(Oc2nc3ccc(Cl)cc3s2)cc1 (centres unmarked) [NZ-372, 2-{4-[(6-chloro-1,3-benzothiazol-2-yl)oxy]phenyl}-N-(2,3-dihydroxypropyl)propanamide]	≥ 100	4.67 (≈ 1.9 µg/mL)	2.75	–
NCc1ccc(Oc2nc3ccc(Cl)cc3s2)cc1 [NZ-348, {4-[(6-chloro-1,3-benzothiazol-2-yl)oxy]phenyl}methanamine]	25 to 50	2 (≈ 0.582 µg/mL)	–	IC50 (Mtb AccD6): Not Active
CS(=O)(=O)NC(=O)COc1ccc(Oc2cnc3cc(Cl)ccc3n2)cc1 [NZ-259, 2-{4-[(6-chloroquinoxalin-2-yl)oxy]phenoxy}-N-methanesulfonylacetamide]	–	> 50	1.6 to 2.6	–
CC(Oc1ccc(Oc2ccc(Cl)cc2Cl)cc1)C(=O)O (centres unmarked) [diclofop, reference compound]	–	–	–	whole Mycobacterium tuberculosis cell inhibition (Mtb strain mc^2-7000): none exhibited whole Mycobacterium tuberculosis cell inhibition; Mtb AccD6 inhibition (Mtb AccD6): only haloxyfop exhibited Mtb AccD6 inhibition
CNC(=O)NCc1ccc(Oc2nc3ccc(Cl)cc3s2)cc1 [NZ-350, 1-({4-[(6-chloro-1,3-benzothiazol-2-yl)oxy]phenyl}methyl)-3-methylurea]	≥ 100	–	1.6	MIC (Mtb strain mc^2-7000): Not Active
O=C(O)/C=C/c1ccc(Oc2nc3ccc(Cl)cc3s2)cc1 [NZ-283, (2E)-3-{4-[(6-chloro-1,3-benzothiazol-2-yl)oxy]phenyl}prop-2-enoic acid]	–	12 (≈ 3.98 µg/mL)	–	inhibition at 20 µM (Mtb AccD6): 33%
CC(C)NC(=O)Cc1ccc(Oc2nc3ccc(F)cc3s2)cc1O [NZ-405, 2-{4-[(6-fluoro-1,3-benzothiazol-2-yl)oxy]-2-hydroxyphenyl}-N-(propan-2-yl)acetamide]	–	17.5 (≈ 6.31 µg/mL)	0.15	–
CC(C)NC(=O)Cc1ccc(Oc2nc3cc(F)c(F)cc3s2)cc1O [NZ-407, 2-{4-[(5,6-difluoro-1,3-benzothiazol-2-yl)oxy]-2-hydroxyphenyl}-N-(propan-2-yl)acetamide]	–	11.7 (≈ 4.43 µg/mL)	0.11	–
COC(=O)CCc1ccc(Oc2nc3ccc(Cl)cc3s2)cc1 [NZ-280, methyl 3-{4-[(6-chloro-1,3-benzothiazol-2-yl)oxy]phenyl}propanoate]	–	6 (≈ 2.09 µg/mL)	–	inhibition at 20 µM (Mtb AccD6): 50%
CONC(=O)Nc1ccc(Oc2cnc3cc(Cl)ccc3n2)cc1 [NZ-344, 1-{4-[(6-chloroquinoxalin-2-yl)oxy]phenyl}-3-methoxyurea]	–	25 (≈ 8.62 µg/mL)	4.1	–
CN(C)C(=O)COc1ccc(Oc2cnc3cc(Cl)ccc3n2)cc1 [NZ-262, 2-{4-[(6-chloroquinoxalin-2-yl)oxy]phenoxy}-N,N-dimethylacetamide]	–	> 25	1.8	–
COC(C(=O)O)c1ccc(Oc2nc3ccc(Cl)cc3s2)cc1 (centres unmarked) [NZ-356, 2-{4-[(6-chloro-1,3-benzothiazol-2-yl)oxy]phenyl}-2-methoxyacetic acid]	≥ 100	25 (≈ 8.74 µg/mL)	1.7	–
CC(C)NC(=O)Cc1ccc(Oc2nc3cc(F)c(F)cc3s2)cc1 [NZ-403, 2-{4-[(5,6-difluoro-1,3-benzothiazol-2-yl)oxy]phenyl}-N-(propan-2-yl)acetamide]	–	1.24 (≈ 0.449 µg/mL)	0.16	–
C=CCO/N=C(\CCC)C1=C(O)C(C(=O)OC)C(C)(C)CC1=O (centres unmarked) [alloxydim, reference compound]	–	–	–	whole Mycobacterium tuberculosis cell inhibition (Mtb strain mc^2-7000): none exhibited whole Mycobacterium tuberculosis cell inhibition; Mtb AccD6 inhibition (Mtb AccD6): only haloxyfop exhibited Mtb AccD6 inhibition
CN(C)C(=O)Nc1ccc(Oc2nc3ccc(Cl)cc3s2)cc1 [NZ-354, 1-{4-[(6-chloro-1,3-benzothiazol-2-yl)oxy]phenyl}-3,3-dimethylurea]	50 to 100	1 (≈ 0.348 µg/mL)	7.3	–
CC(C)(C)OC(=O)NCc1ccc(Oc2nc3ccc(Cl)cc3s2)cc1 [NZ-347, tert-butyl N-({4-[(6-chloro-1,3-benzothiazol-2-yl)oxy]phenyl}methyl)carbamate]	≥ 100	15 (≈ 5.86 µg/mL)	–	IC50 (Mtb AccD6): Not Active

Compound	concentrations at which not toxic, s. cerevisiae cytotoxicity (S. cerevisiae) [µM]	MIC (Mtb strain mc^2-7000; [1]) [µM]	IC50 (Mtb AccD6; read-out: IC50) [µM]	also measured
CC(C)(C)OC(=O)Nc1ccc(Oc2nc3ccc(Cl)cc3s2)cc1 [NZ-351, tert-butyl N-{4-[(6-chloro-1,3-benzothiazol-2-yl)oxy]phenyl}carbamate]	≥ 100	–	–	MIC (Mtb strain mc^2-7000): Not Active; IC50 (Mtb AccD6): Not Active
O=C(O)c1ccc(Oc2nc3ccc(Cl)cc3s2)cc1 [NZ-288, 4-[(6-chloro-1,3-benzothiazol-2-yl)oxy]benzoic acid]	–	25 (≈ 7.64 µg/mL)	12	–
CC(C)NC(=O)Nc1ccc(Oc2nc3ccccc3s2)cc1 [NZ-360, 1-[4-(1,3-benzothiazol-2-yloxy)phenyl]-3-(propan-2-yl)urea]	≥ 100	4.3 (≈ 1.41 µg/mL)	13.3	–
COC(=O)c1ccc(Oc2nc3ccc(Cl)cc3s2)cc1 [NZ-285, methyl 4-[(6-chloro-1,3-benzothiazol-2-yl)oxy]benzoate]	–	12 (≈ 3.84 µg/mL)	–	IC50 (Mtb AccD6): Not Active
CCOC(COc1ccc(Oc2cnc3cc(Cl)ccc3n2)cc1)OCC [NZ-272, 6-chloro-2-[4-(2,2-diethoxyethoxy)phenoxy]quinoxaline]	–	> 12.5	5.8	–
Cc1cccc(Oc2nc3ccc(Cl)cc3s2)c1 [NZ-291, 6-chloro-2-(3-methylphenoxy)-1,3-benzothiazole]	–	25 (≈ 6.89 µg/mL)	–	inhibition at 20 µM (Mtb AccD6): 30%
CCC/C(=N\OCC)C1=C(O)CC(CC(C)SCC)CC1=O (centres unmarked) [sethoxydim, reference compound]	–	–	–	whole Mycobacterium tuberculosis cell inhibition (Mtb strain mc^2-7000): none exhibited whole Mycobacterium tuberculosis cell inhibition; Mtb AccD6 inhibition (Mtb AccD6): only haloxyfop exhibited Mtb AccD6 inhibition
Clc1ccc2nc(Oc3ccccc3)sc2c1 [NZ-292, 6-chloro-2-phenoxy-1,3-benzothiazole]	–	12 (≈ 3.14 µg/mL)	–	inhibition at 20 µM (Mtb AccD6): 42%
Nc1ccc(Oc2nc3ccc(Cl)cc3s2)cc1 [NZ-352, 4-[(6-chloro-1,3-benzothiazol-2-yl)oxy]aniline]	25 to 50	1.5 (≈ 0.415 µg/mL)	–	IC50 (Mtb AccD6): Not Active
O=C(COc1ccc(Oc2cnc3cc(Cl)ccc3n2)cc1)N1CCNCC1 [NZ-277, 2-{4-[(6-chloroquinoxalin-2-yl)oxy]phenoxy}-1-(piperazin-1-yl)ethan-1-one]	–	12.5 (≈ 4.99 µg/mL)	5.6	–
O=C(O)CCc1ccc(Oc2nc3ccc(Cl)cc3s2)cc1 [NZ-282, 3-{4-[(6-chloro-1,3-benzothiazol-2-yl)oxy]phenyl}propanoic acid]	–	–	–	MIC (Mtb strain mc^2-7000): Not Active; inhibition at 20 µM (Mtb AccD6): 40%
CC(O)COc1ccc(Oc2cnc3cc(Cl)ccc3n2)cc1 (centres unmarked) [NZ-264, 1-{4-[(6-chloroquinoxalin-2-yl)oxy]phenoxy}propan-2-ol]	–	> 12.5	3.4	–
CC(C)NC(=O)Cn1ccc(Oc2nc3ccc(Cl)cc3s2)cc1=O [NZ-404, 2-{4-[(6-chloro-1,3-benzothiazol-2-yl)oxy]-2-oxo-1,2-dihydropyridin-1-yl}-N-(propan-2-yl)acetamide]	–	–	14.4	% at 50 uM (Mtb strain mc^2-7000; 50 uM): 38% at 50 uM
CNC(=O)C(C)c1ccc(Oc2nc3ccc(F)cc3s2)cc1O (centres unmarked) [NZ-408, 2-{4-[(6-fluoro-1,3-benzothiazol-2-yl)oxy]-2-hydroxyphenyl}-N-methylpropanamide]	–	6.5 (≈ 2.25 µg/mL)	0.21	–
COC(=O)/C=C/c1ccc(Oc2nc3ccc(Cl)cc3s2)cc1 [NZ-281, methyl (2E)-3-{4-[(6-chloro-1,3-benzothiazol-2-yl)oxy]phenyl}prop-2-enoate]	–	50 (≈ 17.3 µg/mL)	–	inhibition at 20 µM (Mtb AccD6): 30%
Cn1nnnc1COc1ccc(Oc2cnc3cc(Cl)ccc3n2)cc1 [NZ-270, 6-chloro-2-{4-[(1-methyl-1H-1,2,3,4-tetrazol-5-yl)methoxy]phenoxy}quinoxaline]	–	> 50	9.7	–
Cc1ccc2nc(Oc3ccc(NC(=O)NC(C)C)cc3)sc2c1 [NZ-358, 1-{4-[(6-methyl-1,3-benzothiazol-2-yl)oxy]phenyl}-3-(propan-2-yl)urea]	≥ 100	5.8 (≈ 1.98 µg/mL)	20	–
CCCC(=NOCC)C1=C(O)CC(C2CCCSC2)CC1=O (centres unmarked) [cycloxydim, reference compound]	–	–	–	whole Mycobacterium tuberculosis cell inhibition (Mtb strain mc^2-7000): none exhibited whole Mycobacterium tuberculosis cell inhibition; Mtb AccD6 inhibition (Mtb AccD6): only haloxyfop exhibited Mtb AccD6 inhibition
NC(=O)COc1ccc(Oc2cnc3cc(Cl)ccc3n2)cc1 [NZ-258, 2-{4-[(6-chloroquinoxalin-2-yl)oxy]phenoxy}acetamide]	–	50 (≈ 16.5 µg/mL)	2.1 to 3.1	–

Source: patent publication US10300071B2, “Compositions and methods for inhibition of mycobacteria” (priority 2014, dated 2019)
